Measurements as given in US7446119B2, “Miticidal triazolidine derivatives” (Crompton Corporation, priority 2005, dated 2008).

Columns and labels:
Tetranychus urticae Koch [1] = assay: Mite adulticide pre-infection test (MI); type: in vivo; settings: cowpea plants sprayed to run off with 300 ppm, adult mites transferred one day after treatment, examined five days later
Protocol: The remaining examples relate to the miticidal use of the compounds of this invention. In all these examples, a stock solution for the compounds was prepared at 3000 ppm by dissolving each compound to be tested in acetone with 0.67% Tween (v/v), a wetting agent. […] For each example that follows, this stock solution was used and the specificized dilutions made. All the tests discussed below, which involved treatment with compounds of this invention were always repeated with controls, in which the active compound was not provided, to permit a comparison upon which the percent control was calculated. One day before treatment of cowpea primary leaves with the test solutions, rings of tree tanglefoot were applied to each of two cowpea primary leaves, one from each of two plants in a pot. For the mite adulticide pre-infection tests, plants were sprayed to run off with a 300 ppm solution diluted from the 3000 ppm stock solution. One day following treatment of the plants with the test solution, groups of approximately 25 adult mites were transferred into the rings. Five days later these rings were examined for live mites remaining on the leaves. The percent control was estimated based on the number of mites surviving on the control plants.

Tetranychus urticae Koch [2] = assay: Mite ovicide test (MIOV); type: in vivo; settings: mite eggs on cowpea leaves, sprayed to run off with 100 ppm, examined nine days after treatment, based on unhatched eggs
Protocol: The remaining examples relate to the miticidal use of the compounds of this invention. In all these examples, a stock solution for the compounds was prepared at 3000 ppm by dissolving each compound to be tested in acetone with 0.67% Tween (v/v), a wetting agent. […] For each example that follows, this stock solution was used and the specificized dilutions made. All the tests discussed below, which involved treatment with compounds of this invention were always repeated with controls, in which the active compound was not provided, to permit a comparison upon which the percent control was calculated. One day before treatment of cowpea primary leaves with the test solutions, rings of tree tanglefoot were applied to each of two cowpea primary leaves, one from each of two plants in a pot. For the mite ovicide tests, groups of adult mites (Tetranychus urticae Koch) were transferred into the rings one day before treatment and the females were allowed to deposit eggs until one hour before treatment, at which point all the adults were removed. The plants were then sprayed to run off with a 100 ppm solution diluted from the 3000 ppm stock solution. Nine days following treatment the ovicide rings were examined for unhatched eggs and living immature mites. The percent control was estimated based on the number of unhatched eggs.

## COc1ccc(-c2ccccc2)cc1N1CN(C)CN1C(=O)OC(C)C [Compound 1, 1-methylethyl 2-(4-methoxy-[1,1′-biphenyl]-3-yl)-4-methyl-1,2,4-triazolidine-1-carboxylate]
Tetranychus urticae Koch [1]
  Percent Control MI: 100%
Tetranychus urticae Koch [2]
  Percent Control MIOV: 100%
